Experimental data published in patent US7767714B2, “Method of preventing infectious diseases” (Ajinomoto Co., Inc., priority 2002, dated 2010).

Key:
[1] = system: influenza virus A/Aichi/2/68 (H3N2); assay: Body weight change of mice after influenza virus infection (Example 1); format: in vivo, BALB/c female mice; settings: mouse; feed with 0.5 wt % L-cystine and/or 0.2 wt % L-theanine for 2 weeks; 10^5 PFU nasally; versus control group on basic feed; FIG. 1
Excerpt: 4-week-old BALB/c female mice in the growth period were preliminarily raised on a solid feed (CRF-1 solid feed, Charles River Japan, inc.) for one week, then preliminarily raised on a powder feed (CRF-1 powder feed, Charles River Japan, inc.) for one week, and when they reached 6 weeks of age, the feed was changed to a feed containing 20 wt % of casein as a protein source (basic feed: composition: α-corn starch 68.3 wt %, casein 20 wt %, mineral mixture 3.5 wt %, vitamin mixture 1 wt %, cellulose powder 2 wt %, corn-oil 5 wt %, choline bitartrate 0.2 wt %), the same feed supplemented with 0.5 wt % of L-cystine as an amino acid, the same feed supplemented with 0.2 wt % of L-theanine as an amino acid, and the same feed supplemented with 0.5 wt % of L-cystine and 0.2 wt % of L-theanine as amino acids (the present invention), and further raised for 2 weeks. Those continuously raised on the basic feed were used as a control group. Ten mice were used for the test for each group.
At two weeks of the amino acid addition feed administration, 10^5 PFU influenza virus A/Aichi/2/68 (H3N2) was nasally inoculated, the body weight of the mice was measured immediately before virus inoculation and day 5 of infection.
Thus, it was clarified that a concurrent use of L-theanine enhanced the action of L-cystine.

Escherichia coli = settings: Chem. Pharm. Bull. 28, 3549-3554, 1980; cited from earlier work
trichomonas = settings: extremely high concentration of theanine, in vitro cultivation system; Nature 166, 352, 1950; cited from earlier work
Staphylococcus aureus = settings: J. Biol. Chem. 171, 387, 1947; Chem. Pharm. Bull. 28, 3549-3554, 1980; cited from earlier work

Structure (SMILES) | body weight change at day 5 of influenza virus infection [1] | growth of Escherichia coli (Escherichia coli) | trichomonas growth (trichomonas) | growth of Staphylococcus aureus (Staphylococcus aureus)
N[C@@H](CSSC[C@H](N)C(=O)O)C(=O)O [L-cystine] | suppressed somewhat |  |  | 
CCNC(=O)CC[C@H](N)C(=O)O [L-theanine] | body weight decrease of the same level as that of the control group |  |  | 
CCNC(=O)CC[C@H](N)C(=O)O [theanine] |  | suppression of growth of Staphylococcus aureus and Escherichia coli | suppression of trichomonas growth | suppression of growth of Staphylococcus aureus
